# Results taken from patent US7348421B1, “Methods for production of p-hydroxybenzoate in bacteria” (North Carolina State University, priority 2000, dated 2008).
# Values joined by “and” are separate entries in the source; they are usually repeats but may differ in a detail not shown here. Identical values can stand only once. Like-named read-outs stand apart in the source and are kept apart here.
# Columns and labels:
# [1] = tested on: toluene-tolerant strain; experiment: Enrichment selection in flasks, toluene; format: cell-based; conditions: slow rate of growth
# Protocol: Using a similar procedure with toluene, a toluene-tolerant strain (with a slow rate of growth on 150 ppm of toluene) was obtained. Adding 10 mM MgSO4 increased the tolerance of the organism to toluene.
# [2] = tested on: DOT-T1E; format: cell-based, Pseudomonas putida; conditions: wild-type, 0.3% (vol/vol) toluene
# [3] = tested on: Pseudomonas putida DOT-T1E; experiment: Halo-inhibition test with antibiotic disks on minimal medium; format: cell-based; conditions: wild-type; Halo-inhibition test
# [4] = tested on: P. mendocina krc16DkpobA51a (#303); format: cell-based, Pseudomonas mendocina; conditions: gradient 0-100 mg/L, repeated lines
# [5] = tested on: P. mendocina KR1-A (#362); format: cell-based, Pseudomonas mendocina; conditions: gradient 0-100 mg/L, repeated lines
# [6] = tested on: strain C; experiment: Selection on TSA plates with toluene and pHBA; format: cell-based; conditions: 100 ppm toluene
# Protocol: (§1) Three more transfers were made in a TSA medium plus 10 g/L glucose, 100 mg/L cycloheximide, 5 g/L agar (Difco), and increasing concentrations of pHBA. The pH was adjusted to 7.2. Toluene to 100 ppm was added to the bottom of the glass desicator as a mixture of hexadecane:toluene (262 mL:26.5 mL). This mixture was expected to give 100 ppm toluene in the liquid phase in equilibrium. Selected strains C and F (DGL#325) grew on 40 g/L pHBA after few day of incubation, strain C grew at 50 g/l pHBA after 10 days of incubation. Under microscope strain C grew in long chains.
# [7] = tested on: P. mendocina KR1 with pPAT7; conditions: gradient 0-20 g/L
# [8] = tested on: P. putida KT2440 with pPAT7; conditions: gradient 0-20 g/L
# [9] = tested on: Bacillus subtilis; format: cell-based; conditions: gradient of PHBA between 0 and 30 g/L
# [10] = tested on: Pseudomonas putida EEZ10; format: cell-based; conditions: gradient of PHBA between 0 and 30 g/L
# [11] = tested on: P. putida PhoA5 with pPAT8; conditions: gradient 0-20 g/L
# [12] = tested on: P. mendocina KR1 (#363); experiment: Growth on pHBA gradient plates; conditions: gradient 0 to 40 g/L, 24 h, 30° C.
# [13] = tested on: P. mendocina KR1 with pPAT8; conditions: gradient 0-20 g/L
# [14] = tested on: Pseudomonas putida DOT-T1E; experiment: Growth in M9 liquid medium with glucose and p-hydroxybenzoate; format: cell-based; conditions: M9 with glucose
# [15] = tested on: P. putida KT2440; conditions: P. putida KT2440, plasmid none; gradient 0-20 g/L
# [16] = tested on: Alcaligenes eutrophus; format: cell-based; conditions: gradient of PHBA between 0 and 30 g/L
# [17] = tested on: Pseudomonas putida DOT-T1E; experiment: pHBA shock after preculture on pHBA, 1 or 10 mM MgSO4; format: cell-based
# [18] = tested on: P. mendocina krc16DkpobA51a (#303); conditions: gradient 0 to 40 g/L, 24 h, 30° C.
# [19] = tested on: Escherichia coli ET8000; format: cell-based; conditions: gradient of PHBA between 0 and 30 g/L
# [20] = tested on: Ralstonia solanacearum; format: cell-based; conditions: gradient of PHBA between 0 and 30 g/L
# [21] = tested on: Pseudomonas putida R1; format: cell-based; conditions: gradient of PHBA between 0 and 30 g/L
# [22] = tested on: Pseudomonas aeruginosa; format: cell-based; conditions: gradient of PHBA between 0 and 30 g/L
# [23] = tested on: E. coli K12 (#327); conditions: gradient 0 to 40 g/L, 24 h, 30° C.
# [24] = tested on: strain F (DGL#325); experiment: Selection on TSA plates with toluene and pHBA; format: cell-based, Pseudomonas mendocina; conditions: 100 ppm toluene, after few day of incubation
# Protocol: as §1, with “[…].” for “Selected strains C and F (DGL#325) grew on 40 g/L pHBA after few day of incubation, strain C grew at 50 g/l pHBA after 10 days of incubation.”
# [25] = tested on: Pseudomonas vesicularis; format: cell-based; conditions: gradient of PHBA between 0 and 30 g/L
# [26] = tested on: Pseudomonas fluorescens; format: cell-based; conditions: gradient of PHBA between 0 and 30 g/L
# [27] = tested on: Pseudomonas stutzeri; format: cell-based; conditions: gradient of PHBA between 0 and 30 g/L
# [28] = tested on: Enriched cultures; experiment: Selection on TSA plates with toluene and pHBA; format: cell-based; conditions: dodecane:toluene overlay (100 ppm toluene)
# Protocol: Five transfers were made on glass plates with trypticase soy agar (TSA-Difco) medium with 10 g/L glucose. Toluene (˜0.5 mL) was added to the bottom of the inverted plates, saturating the medium and the gas phase. […]. This mixture was calculated to give 100 ppm toluene concentration in the liquid phase. […]
# [29] = tested on: Acinetobacter calcoaceticus; format: cell-based; conditions: gradient of PHBA between 0 and 30 g/L
# [30] = tested on: PhoA5 mutant; experiment: Survival after sudden pHBA shock with or without Fe-citrate; format: cell-based, Pseudomonas putida
# [31] = tested on: P. mendocina KR1; conditions: P. mendocina KR1, plasmid none, gradient 0-20 g/L
# [32] = tested on: P. putida KT2440 with pPAT8; conditions: gradient 0-20 g/L
smiles,measurement,setting,value
Cc1ccccc1 [toluene],toluene concentration at which the strain grew,[1],150 ppm
same,survival of toluene shock,[2]; cells pre-exposed to toluene in the gas phase,tolerated the shock
same,loss of viability after sudden exposure to toluene,[2]; non-pre-exposed cells,5 orders of magnitude
"O=C(N[C@H](CO)[C@H](O)c1ccc([N+](=O)[O-])cc1)C(Cl)Cl [CAM, chloramphenicol]",tolerance/sensitivity to antibiotic,[3],tolerant
same,Growth (distance in mm) on CAM gradient,[4],10 mm and 15 mm
same,Growth (distance in mm) on CAM gradient,[5],15 mm and 10 mm
"O=C(O)c1ccc(O)cc1 [pHBA, p-hydroxybenzoic acid]",pHBA concentration at which strain grew,[6]; after 10 days of incubation,50 g/l
same,pHBA concentration at which strain grew,[6]; after few day of incubation,40 g/L
same,pHBA Tolerance,[7],~10 g/L
same,pHBA Tolerance,[8],17 g/L
same,pHBA tolerance or sensitivity,[9],sensitive
same,pHBA tolerance or sensitivity,[10],tolerant
same,pHBA Tolerance,[11],17 g/L
same,growth on pHBA gradient plates,[12],10 mm and 20 mm
same,pHBA Tolerance,[13],10.2 g/L
same,pHBA Tolerance,[13]; listed as PHBA,~10 g/L
same,growth (CFU per mL),[14]; 6 g/L of p-hydroxybenzoate,growth was exponential
same,growth (CFU per mL),[14]; 12 or higher g/L p-hydroxybenzoate,number of viable cells decreased
same,pHBA Tolerance,[15],17 g/L
same,pHBA tolerance or sensitivity,[16],sensitive
same,cell viability after pHBA shock,"[17]; cells not pregrown on pHBA, 30 and 36 g/L, 24 h after the shock",no cells were recovered
same,cell viability after pHBA shock,"[17]; cells not pregrown on pHBA, >18 g/L, 1 or 10 mM MgSO4",marked decrease in cell viability
same,cell viability after pHBA shock,"[17]; preinduced cells, 30 and 36 g/L pHBA, 1 mM MgSO4, 24 h after the shock",cells were not recoverable
same,decrease in number of viable cells after pHBA shock,"[17]; preinduced cells, 30 g/L, 10 mM MgSO4, growth resumed afterwards",~6 orders of magnitude
same,cell viability after pHBA shock,"[17]; preinduced cells, up to 0.18 g/L PHBA, regardless of MgSO4",no significant effect on cell viability
same,growth on pHBA gradient plates,[18],10 mm and 15 mm
same,pHBA tolerance or sensitivity,[19],tolerant
same,pHBA tolerance or sensitivity,[20],sensitive
same,pHBA tolerance or sensitivity,[21],tolerant
same,pHBA tolerance or sensitivity,[22],sensitive
same,growth on pHBA gradient plates,[23],35 mm and 20 mm
same,pHBA concentration at which strain grew,[24],40 g/L
same,pHBA tolerance or sensitivity,[25],sensitive
same,pHBA tolerance or sensitivity,[26],sensitive
same,pHBA tolerance or sensitivity,[27],sensitive
same,pHBA concentration at which cultures grew,[28],20 g/L
same,pHBA tolerance or sensitivity,[29],tolerant
same,survival after pHBA shock,"[30]; 12 g/L PHBA, absence of iron",about 0.0001%
same,survival after pHBA shock,"[30]; 12 g/L PHBA, with extra iron (Fe-citrate)",~100%
same,survival after pHBA shock,"[30]; 18 g/L, absence of iron",no cells survived
same,survival after pHBA shock,"[30]; 18 g/L, supplemented with iron",0.001%
same,pHBA Tolerance,[31],8.5 g/L
same,pHBA Tolerance,[31]; listed as PHBA,about 8.5 g/L
same,pHBA Tolerance,[32],18.5 g/L
